Experimental data as given in article PMC6010916, “Safety and pharmacokinetics of veliparib extended‐release in patients with advanced solid tumors: a phase I study” (Cancer Medicine, 2018).

Key:
[1] = cited from earlier work
[2] = tested on: non-small-cell lung cancer; triple-negative breast cancer; parameters: method as in earlier work; settings: combined with carboplatin and paclitaxel; preliminary results; cited from earlier work
[3] = tested on: advanced solid tumors (ovarian, breast carcinoma); assay: Time to disease progression (TTP); type: in vivo, human
Procedure: Adverse event (AE) severity was assessed according to the National Cancer Institute Common Terminology Criteria for Adverse Events (NCI CTCAE) version 4.0. Tumor evaluations were performed at screening, every 8 weeks after the first administration of study drug, and at the final visit using radiographic measurements from computed tomography or magnetic resonance imaging. Objective tumor responses were evaluated using RECIST version 1.1 criteria. Patients who received one or more doses of veliparib were included in the PK and safety analyses, as well as for evaluation of time to disease progression (TTP). Patients with one or more measurable lesion at baseline were included in the analysis of objective responses.

C[C@]1(c2nc3c(C(N)=O)cccc3[nH]2)CCCN1 [veliparib]
RP2D ([1]; single agent, phase I study): 400 mg twice-daily (BID)
patients experiencing grade 3 or 4 neutropenia or thrombocytopenia ([1]; single-agent therapy, phase I and II trials): 2%
patients with dose modifications, predominantly for nausea and vomiting ([1]; single-agent therapy): 78%
primary endpoints (overall survival or complete pathologic response) [2]: did not meet their primary endpoints
6-month TTP rate ([3]; breast carcinoma (n = 17)): 53.5%
6-month TTP rate ([3]; deleterious BRCA mutations, breast carcinoma): 53.5%
6-month TTP rate ([3]; deleterious BRCA mutations, ovarian carcinoma): 35.7%
6-month TTP rate ([3]; ovarian carcinoma (n = 53)): 31.8%
6-month TTP rate (had not progressed at 6 months) ([3]; overall (N = 71)): 38.1%
median TTP ([3]; overall population (N = 71)): 149 days
6-month TTP rate ([3]; patients with deleterious BRCA mutations): 43.0%
6-month TTP rate ([3]; patients without BRCA mutations): 22.9%
6-month TTP rate ([3]; unknown BRCA mutation status): 27.8%
